Test results as given in paper PMC10458118, “Bitter Almond Albumin ACE-Inhibitory Peptides: Purification, Screening, and Characterization In Silico, Action Mechanisms, Antihypertensive Effect In Vivo, and Stability” (Molecules, 2023).
Values belong to the substance of their own block, whether it stands above or below them. Ends that are not written are not given here.

Assays:
ACE [1] = biological target: T1, ACE (Oryctolagus cuniculus, UniProt P12822); test: ACE inhibition, N-hippuryl-L-histidyl-L-leucine method; format: biochemical; settings: synthesized peptide; HHL 5 mmol·L^−1, boric acid buffer pH 8.3, 37 °C, 10 min pre-incubation, 1 h reaction, absorbance at 228 nm; read-out: Inhibitory effect against ACE (IC50)
T1 construct: purchased Sigma (St. Louis, MO, USA)
T1 sequence (P12822 34-1310): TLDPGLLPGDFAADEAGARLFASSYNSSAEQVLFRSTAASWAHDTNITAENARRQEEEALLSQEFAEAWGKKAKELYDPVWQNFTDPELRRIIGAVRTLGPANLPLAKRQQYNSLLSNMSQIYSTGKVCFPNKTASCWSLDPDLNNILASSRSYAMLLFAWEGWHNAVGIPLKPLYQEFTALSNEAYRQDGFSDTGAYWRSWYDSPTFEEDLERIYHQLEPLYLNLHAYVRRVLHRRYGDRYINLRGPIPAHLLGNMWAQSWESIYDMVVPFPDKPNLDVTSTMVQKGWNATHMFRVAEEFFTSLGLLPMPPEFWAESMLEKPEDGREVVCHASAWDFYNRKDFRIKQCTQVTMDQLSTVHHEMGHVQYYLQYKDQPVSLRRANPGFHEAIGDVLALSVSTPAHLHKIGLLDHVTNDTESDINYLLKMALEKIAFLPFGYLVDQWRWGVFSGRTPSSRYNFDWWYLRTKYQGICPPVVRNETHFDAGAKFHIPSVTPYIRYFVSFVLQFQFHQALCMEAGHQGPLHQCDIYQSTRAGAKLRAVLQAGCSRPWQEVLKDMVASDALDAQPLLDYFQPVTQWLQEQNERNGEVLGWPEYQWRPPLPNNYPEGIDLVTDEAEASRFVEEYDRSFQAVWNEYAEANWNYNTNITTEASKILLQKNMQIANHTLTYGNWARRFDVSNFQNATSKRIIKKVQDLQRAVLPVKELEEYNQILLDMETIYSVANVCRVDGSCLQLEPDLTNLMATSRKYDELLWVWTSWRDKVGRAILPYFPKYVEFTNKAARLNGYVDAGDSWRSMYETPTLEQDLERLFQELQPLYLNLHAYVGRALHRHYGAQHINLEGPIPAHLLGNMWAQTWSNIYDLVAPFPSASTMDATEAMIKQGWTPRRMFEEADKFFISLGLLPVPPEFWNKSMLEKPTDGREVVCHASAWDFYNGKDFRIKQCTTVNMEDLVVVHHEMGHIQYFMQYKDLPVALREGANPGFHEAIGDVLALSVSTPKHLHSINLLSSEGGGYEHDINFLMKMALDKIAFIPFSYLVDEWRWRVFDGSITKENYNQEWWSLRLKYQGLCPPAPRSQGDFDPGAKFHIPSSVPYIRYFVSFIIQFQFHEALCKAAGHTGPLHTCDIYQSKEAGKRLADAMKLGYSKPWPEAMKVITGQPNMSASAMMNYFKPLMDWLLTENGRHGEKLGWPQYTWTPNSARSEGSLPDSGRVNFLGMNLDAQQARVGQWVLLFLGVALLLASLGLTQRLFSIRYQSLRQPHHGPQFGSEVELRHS
Protocol: The N-hippuryl-L-histidyl-L-leucine method was utilized for the determination of the inhibiting capacity of BAAH peptides toward ACE [30]. In a glass test tube, 0.2 mL of ACE solution (dissolved in boric acid buffer, pH 8.3) and 0.2 mL of BAAH peptide aqueous solution (1 mg·mL^−1) were added. The mixture in the glass tube was shaken in a water bath at 143 r·min^−1 and 37 °C. Ten minutes later, 0.65 mL of N-hippuryl-L-histidyl-L-leucine (5 mmol·L^−1, dissolved in boric acid buffer, pH 8.3) was added. After continuously shaking for 1 h, 0.75 mL of dilute hydrochloric acid was added into the tube. Next, hippuric acid produced in the reaction solution was extracted by ethyl acetate (1.25 mL). The hippuric acid solution (the supernatant) was sucked out with a pipette (DG-1, Dragon TopPette, Beijing, China) and heated at 70 °C to evaporate the ethyl acetate. The residual hippuric acid was resolved in distilled water, and its absorbance at 228 nm was read. The inhibition capacity of BAAH peptides against ACE was the percentage of the absorbance reduction value at 228 nm to the absorbance of the control group (without BAAH peptide). The concentration of BAAH peptides was defined as IC50 when the activity of ACE was inhibited by half.

[2] = Zinc-chelating ability after simulated gastrointestinal digestion (pepsin, then pancreatin); format: in vitro ADME; settings: 5 mg/mL peptide; pepsin pH 2.00, 90 min, then pancreatin pH 7.00, 150 min, 37 °C; then 4-(β-Pyridinazo)-resorcinol method
Protocol: (§1) In short, 0.75 mmol·L^−1 of ZnSO4 (dissolved in 0.2 mmol·L^−1 of HEPES-KOH buffer) and 10 mmol·L^−1 of 1,4-Dithiothreitol were added into a glass tube. The tube was incubated in the THZ-82AB thermostatic oscillator (195 r·min^−1 and 25 °C). Five minutes later, the zinc concentration in the glass tube was measured and read as C0. Next, the BAAH peptides aqueous solution (0.8 mg·mL^−1) was added and the mixture was continuously shaken for another 15 min. Then, the zinc concentration in the glass tube was measured and read as Ct. The chelating ability of BAAH peptides toward zinc ions was calculated as follows, and ethylenediamine tetraacetic acid (EDTA) was used as the positive control. (1) Chelating ability towards zinc ions (mg·g^−1) = (C0−Ct) × V/m where V and m represent the volume of the reaction solution (mL) and the mass weight of BAAH peptides (g), respectively.
In a stirring (115 r·min^−1) water bath at 37 °C, the BAAH peptides’ aqueous solution (5 mg/mL, 10 mL) was added into a glass test tube, and the pH value was adjusted to 2.00 ± 0.05 with dilute hydrochloric acid solution (0.5 mol·L^−1). […] Afterward, both the chelating ability toward zinc ion, and the inhibition activity of BAAH peptides against ACE were determined using the 4-(β-Pyridinazo)-resorcinol method and N-hippuryl-L-histidyl-L-leucine method, respectively. […]

ACE [3] = test: ACE inhibition after simulated gastrointestinal digestion (pepsin, then pancreatin); format: in vitro ADME; settings: pepsin pH 2.00, 90 min, then pancreatin pH 7.00, 150 min, 37 °C; p > 0.5 as printed
Protocol: The N-hippuryl-L-histidyl-L-leucine method was utilized for the determination of the inhibiting capacity of BAAH peptides toward ACE [30]. In a glass test tube, 0.2 mL of ACE solution (dissolved in boric acid buffer, pH 8.3) and 0.2 mL of BAAH peptide aqueous solution (1 mg·mL^−1) were added. The mixture in the glass tube was shaken in a water bath at 143 r·min^−1 and 37 °C. Ten minutes later, 0.65 mL of N-hippuryl-L-histidyl-L-leucine (5 mmol·L^−1, dissolved in boric acid buffer, pH 8.3) was added. After continuously shaking for 1 h, 0.75 mL of dilute hydrochloric acid was added into the tube. Next, hippuric acid produced in the reaction solution was extracted by ethyl acetate (1.25 mL). The hippuric acid solution (the supernatant) was sucked out with a pipette (DG-1, Dragon TopPette, Beijing, China) and heated at 70 °C to evaporate the ethyl acetate. The residual hippuric acid was resolved in distilled water, and its absorbance at 228 nm was read. The inhibition capacity of BAAH peptides against ACE was the percentage of the absorbance reduction value at 228 nm to the absorbance of the control group (without BAAH peptide). The concentration of BAAH peptides was defined as IC50 when the activity of ACE was inhibited by half. Captopril was used as the positive control. […]

ACE [4] = settings: cited from earlier work; for ACE-inhibitory activity in words: 30 (ADMIET, QTPHQ, ELHPQ), ref 27 (RTVFDGEL, RADVFNPR); for IC50: read-out: Inhibitory capacity on ACE (IC50)
From the text: The results of ultra-high-performance liquid chromatography and quantum-ultra mass spectrometric determination of BAAH-4-C are shown in Table 1 and Figure 4. Five oligopeptides, […]([…]), Lys-Thr-Glu-Thr-Gln-Pro (KTETQP), […]([…]), […]([…]), and Thr-Cys-Gly-Ala-Ser (TCGAS) were obtained. However, only […] offered potential antihypertension based on the vector machine software score (1.35) calculated by the database AHTpin [28]. […] As shown in the Lineweaver–Burk diagram of ACE, the Km increased with the increasing […] dose, but the maximum velocity (Vmax) decreased when the […] dose increased, which was the typical effect of noncompetitive inhibitors. Peptides such as […] an ... || To the best of our knowledge, this is the first study to simultaneously investigate the capacities of bitter almond albumin peptides to inhibit ACE and bind with zinc ions. Previous studies evidenced that thermolysin could quickly cleave the amide bonds linked with hydrophobic amino acid residues, with the released hydrophobic amino acid residues playing an important role in ACE inhibition; whereas papain cleaves multiple sites of polypeptide chains, especially peptide bonds linking with acidic amino acid residues (Glu and Asp), Arg, and aromatic amino acids which was helpful for the release o ... || (+ 2 further places)

SHR = settings: cited from earlier work
From the text: Zinc chelation may change the coordination of peptides toward ACE, resulting in lower ACE-inhibitory activity and antihypertension.

[5] = Chelating ability toward zinc ions, 4-(β-Pyridinazo)-resorcinol method; format: physicochemical; settings: 0.75 mmol·L^−1 ZnSO4 in HEPES-KOH buffer, peptide solution 0.8 mg·mL^−1, 15 min, 25 °C; repeated three or more times
Protocol: as §1

IC50 (ACE [1]): 206 µM
Chelating ability toward zinc ions after gastrointestinal digestion [2]: 18.55 ± 0.95 mg/g
Zinc-chelating ability and ACE-inhibitory capacity after hydrolysis of gastrointestinal proteases, versus untreated peptide (ACE [3]): not significantly reduced
Substance: RPPSEDEDQE

Substance: KYPHVF [symbiotic peptide]
ACE inhibition ability after zinc chelation (ACE [4]): not significantly reduced

Substance: GYGYNY [camellia peptide]
Antihypertensive effects on SHR (SHR): dose-dependent antihypertensive effects
Effect of the addition of zinc ions on antihypertension (SHR): reduce

Substance: ELHPQ [peptide derived from canary seeds]
ACE-inhibitory activity in words (ACE [4]): high ACE-inhibitory activities

Substance: EKTFLLYSCPHR [peptide identified from camel milk]
IC50 (ACE [4]): 312 µM

Substance: PGSGCAGTDL [called Mung bean-derived in b48]
ACE inhibitory pattern (ACE [4]): noncompetitive
Antihypertensive effects on SHR (SHR): dose-dependent antihypertensive effects
Effect of the addition of zinc ions on antihypertension (SHR): reduce

Substance: LVRYYLLVR [peptide from hazelnut protein]
ACE inhibitory pattern (ACE [4]): noncompetitive

Substance: LYSPLLKYFD [peptide from rice bran]
Antihypertensive effects on SHR (SHR): dose-dependent antihypertensive effects
Effect of the addition of zinc ions on antihypertension (SHR): reduce

Substance: KTETQP [KTETQP]
Chelating ability toward zinc ions [5]: 19.30 ± 1.46 e mg·g^−1

Substance: FMRWRDRFL [peptide isolated from tombul hazelnut]
IC50 (ACE [4]): 260 µM

Substance: QPPAAAAAAGAG
Chelating ability toward zinc ions [5]: 1.14 ± 0.01 g mg·g^−1

Substance: QTPHQ [peptide derived from canary seeds]
ACE-inhibitory activity in words (ACE [4]): high ACE-inhibitory activities

Substance: RTVFDGEL [peptide derived from palm kernel glutelin-1]
ACE-inhibitory activity in words (ACE [4]): excellent ability to restrain ACE

Substance: HLNVVHEN [peptide identified from walnut protein]
ACE inhibitory pattern (ACE [4]): noncompetitive

Substance: RADVFNPR [peptide derived from palm kernel glutelin-1]
ACE-inhibitory activity in words (ACE [4]): excellent ability to restrain ACE

Substance: ADMIET [peptide identified in Lepidium meyenii]
ACE-inhibitory activity in words (ACE [4]): high ACE-inhibitory activities
